Reference: patent US10226045B2, “Azoline compounds” (priority 2014, dated 2019)

Assays:
Format in all cases: in vivo
[1] = system: Vetch Aphid (Megoura viciae); assay: Vetch aphid, broad bean leaf disk test; details: foliar, 120 h, 2500 ppm, adult aphids on sprayed broad bean leaf disks, 5 days, in comparison with untreated controls, read-out: mortality
Experimental: B.3 Vetch Aphid (Megoura viciae)
For evaluating control of vetch aphid (Megoura viciae) through contact or systemic means the test unit consisted of 24-well-microtiter plates containing broad bean leaf disks.
The compounds were formulated using a solution containing 75% v/v water and 25% v/v DMSO. Different concentrations of formulated compounds were sprayed onto the leaf disks at 2.5 μl, using a custom built micro atomizer, at two replications.
After application, the leaf disks were air-dried and 5-8 adult aphids placed on the leaf disks inside the microtiter plate wells. The aphids were then allowed to suck on the treated leaf disks and incubated at about 23±1° C. and about 50±5% relative humidity for 5 days. Aphid mortality and fecundity was then visually assessed.

[2] = system: Neotropical Brown Stink Bug (Euschistus heros); assay: Neotropical brown stink bug, sprayed soybean pods in cups; details: 120 h, 100 ppm, adults on soybean pods, after 5 days, in comparison with untreated controls, read-out: mortality
Experimental: B.12 Neotropical Brown Stink Bug (Euschistus heros)
(§1) The active compound was dissolved at the desired concentration in a mixture of 1:1 (vol:vol) distilled water: acetone. Surfactant (Kinetic HV) was added at a rate of 0.01% (vol/vol). The test solution was prepared at the day of use.
Soybean pods were placed in microwavable plastic cups and inoculated with ten adult stage E. heros. Using a hand atomizer, approximately 1 ml solution is sprayed into each cup, insects and food present. A water source was provided (cotton wick with water). Each treatment was replicated 2-fold. Assay arenas were kept at about 25° C. Percent mortality was recorded after 5 days.

[3] = system: Orchid Thrips (dichromothrips corbetti); assay: Orchid thrips, floral-immersion technique; details: 300 ppm; adult thrips on dipped orchid petals; 72 hours after treatment; in comparison with untreated controls; read-out: mortality
Experimental: B.7 Orchid Thrips (dichromothrips corbetti)
Dichromothrips corbetti adults used for bioassay were obtained from a colony maintained continuously under laboratory conditions. For testing purposes, the test compound is diluted in a 1:1 mixture of acetone:water (vol:vol), plus Kinetic HV at a rate of 0.01% v/v.
Thrips potency of each compound was evaluated by using a floral-immersion technique. All petals of individual, intact orchid flowers were dipped into treatment solution and allowed to dry in Petri dishes. Treated petals were placed into individual re-sealable plastic along with about 20 adult thrips. All test arenas were held under continuous light and a temperature of about 28° C. for duration of the assay. After 3 days, the numbers of live thrips were counted on each petal. The percent mortality was recorded 72 hours after treatment.

[4] = system: Tobacco Budworm (Heliothis virescens); assay: Tobacco budworm, insect diet microtiter plate test; details: 120 h, 2500 ppm, eggs on sprayed insect diet, egg and larval mortality after 5 days, in comparison with untreated controls, read-out: mortality
Experimental: B.4 Tobacco Budworm (Heliothis virescens)
For evaluating control of tobacco budworm (HeliothiS virescens) the test unit consisted of 96-well-microtiter plates containing an insect diet and 15-25 H. virescens eggs.
The compounds were formulated using a solution containing 75% v/v water and 25% v/v DMSO. Different concentrations of formulated compounds were sprayed onto the insect diet at 10 μl, using a custom built micro atomizer, at two replications.
After application, microtiter plates were incubated at about 28±1° C. and about 80±5% relative humidity for 5 days. Egg and larval mortality was then visually assessed.

[5] = system: Brown Marmorated Stink Bug (Halyomorpha halys); assay: Brown marmorated stink bug, sprayed peanuts and soybean seeds in cups; details: 120 h, 100 ppm, adults on peanuts and soybean seeds, after 5 days, in comparison with untreated controls, read-out: mortality
Experimental: B.13 Brown Marmorated Stink Bug (Halyomorpha halys)
as §1
Row peanuts and soybean seeds were placed into microwavable plastic cups and inoculated with five adult stage H. halys. Using a hand atomizer, approximately 1 ml solution is sprayed into each cup, insects and food present. A water source was provided (cotton wick with water). Each treatment is replicated 4-fold. Assay arenas are kept at about 25° C. Percent mortality was recorded after 5 days.

O=C(NC1CS(=O)(=O)C1)c1ccc(C2=NCC(c3cc(Cl)c(F)c(Cl)c3)(C(F)(F)F)C2)c2c1CCC2 (centres unmarked) [Compound 2-3, 7-[3-(3,5-Dichloro-4-fluoro-phenyl)-3-(trifluoromethyl)-2,4-dihydropyrrol-5-yl]-N-(1,1-dioxothietan-3-yl)indane-4-carboxamide]
≥ 75%: mortality at 2500 ppm [1] | mortality at 100 ppm [2] | mortality at 300 ppm [3] | mortality at 2500 ppm [4] | mortality at 100 ppm [5]
